Each block holds one molecule with its values, some of them ahead of it.
Key:
[1] = system: EML4-ALK NSCLC PDX tumors (Champions PDX model CTG-0852); format: in vivo; conditions: single agents, oral once daily, after 60 days; Compound I 50 mg/kg, crizotinib 20 mg/kg
NSCLC PDX models = assay: NSCLC PDX model panel, tumor growth inhibition; format: in vivo; conditions: for sensitivity of PDX models by genetic alteration: 100 mg/kg
Protocol: NSCLC PDX models (n=60) were treated for up to 28 days with daily oral doses of vehicle or Compound 1 (100 mg/kg). Tumor growth inhibition (TGI) was calculated when tumors reached pre-specified tumor burden or on day 28. Genetic alterations from pre-treated samples were evaluated using FoundationOne. 58% TGI was used as the responder/non-responder cutoff for correlation analysis.

[2] = dynamic vapor sorption experiment; format: physicochemical; conditions: exposure to 90% relative humidity
[3] = thermal stress stability of solid form; format: physicochemical; conditions: 60° C. for 7 days
Protocol: (§1) Form B is stable under thermal stress of 60° C. for 7 days. […] In one embodiment isolated Compound IA Form B is stable for at least about 6, 7, 8, 9, 10, 11, 12, 14, 16, 18, 20, 22, or 24 months.

[4] = long-term stability study of solid form; format: physicochemical; conditions: 25° C. and 60% relative humidity
Protocol: as §1

[5] = system: LC2/ad non-small cell lung cancer cells expressing an oncogenic CCDC6-RET fusion; assay: LC2/ad cell proliferation by CellTiter-Glo; format: cell-based
Protocol: LC2/ad non-small cell lung cancer cells expressing an oncogenic CCDC6-RET fusion were dosed with increasing concentrations of Compound 1, a RET inhibitor selected from pralsetinib (BLU-667) or agerafenib (RXDX-105), or RET inhibitor+300 nM Compound 1. Cell proliferation was measured by CellTiter-Glo after six days.

SMILES: CC(C)N1CCN(c2ccc(Nc3ncc4cc5n(c4n3)C3(CCCCC3)CNC5=O)nc2)CC1 [Compound I]
TGI [1]: 87%
median TGI for adenocarcinoma (NSCLC PDX models; NSCLC PDX models, adenocarcinoma, 100 mg/kg daily oral, up to 28 days): 73%
median TGI for squamous cell carcinoma (NSCLC PDX models; NSCLC PDX models, squamous cell carcinoma, 100 mg/kg daily oral, up to 28 days): 66%
sensitivity of PDX models by genetic alteration (NSCLC PDX models; models with genetic alterations such as KRAS and EGFR): increased sensitivity
sensitivity of PDX models by genetic alteration (NSCLC PDX models; models with genetic alterations such as RB1): resistance

SMILES: CC(C)N1CCN(c2ccc(Nc3ncc4cc5n(c4n3)C3(CCCCC3)CNC5=O)nc2)CC1 [Compound IA Form B]
solid form after dynamic vapor sorption [2]: remained in Form B
stability under thermal stress [3]: stable
long-term stability, time stable [4]: at least 1 year

300 nM relative to the IC50 for cellular proliferation [5]: > 10 fold
SMILES: CO[C@]1(C(=O)N[C@@H](C)c2ccc(-n3cc(F)cn3)nc2)CC[C@H](c2nc(C)cc(Nc3cc(C)[nH]n3)n2)CC1 [pralsetinib, Pralsetinib]

Source: US20210030758A1, “TREATMENT OF CANCERS HAVING DRIVING ONCOGENIC MUTATIONS” (G1 Therapeutics, Inc., priority 2018, published 2021)
